From patent US20080311126A1, “Antisense Oligonucleotides Directed to Ribonucleotide Reducatase R2 and Uses Thereof in Combination Therapies for the Treatment of Cancer” (Genesense Technologies, Inc, priority 2004, published 2008)
Oligonucleotides are written 5' to 3', each unit as a sugar letter and its base; * is a phosphorothioate linkage, no mark a phosphodiester; rarer units and linkages stand in square brackets, end groups in braces. Plain capitals give the bases only. d = 2'-deoxy (DNA)

What was measured:
Assay type in all cases: cell-based, human
[1] = system: PC-3 prostrate cell adenocarcinoma; test: Relative colony forming efficiency (Example 17, Table 13); settings: averages of 2-8 determinations
How it was run: (§1)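 Read-out: methylene blue-stained colonies scored and expressed as percent of control, given as % inhibition of colony forming ability. Cells had been exposed for four hours to phosphorothioate deoxyribonucleotides, usually 0.2 μM, complexed with 2.5 μg DOTMA/DOPE.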

[2] = system: T24 bladder cell carcinoma; test: as above; settings: averages of 2-8 determinations
How it was run: as §1

[3] = system: HepG2 hepatocellular carcinoma; test: as above; settings: averages of 2-8 determinations
How it was run: as §1

[4] = system: MDA PaCa-2 pancreatic cell carcinoma; test: as above; settings: MIA PaCa-2 pancreatic cell carcinoma; averages of 2-8 determinations
How it was run: as §1

[5] = system: HCT116 colon cell carcinoma; test: as above; settings: averages of 2-8 determinations
How it was run: as §1

[6] = system: A549 lung cell carcinoma; test: as above; settings: averages of 2-8 determinations
How it was run: as §1

[7] = system: Hela S3 cells; test: Relative colony forming efficiency, lipofectin +/- oligonucleotide 4 hours; settings: Hela S3 cervix carcinoma cells; averages of 2-8 determinations
Method: Colony forming efficiency was determined using standard protocols. Briefly, the cells were cultured for 24 hours at 37° C. in growth medium with 10% fetal bovine serum. The cells were washed in 5 ml phosphate buffered saline, pH 7.2, once prior to lipofectin +/−oligonucleotide treatment.
The test oligonucleotides were added to cell cultures in the presence of 2.5 μg of DOTMA/DOPE (Lipofectin; Life Technologies, Inc.) for four hours. The oligonucleotide was tested at 0.2 μM unless otherwise indicated. Controls were the cultures treated with lipofectin but without the oligonucleotide. After 4 hours the medium containing the oligonucleotide was removed and washed with 5 ml of growth medium. The cells were then cultured in growth medium containing 10% fetal bovine serum for seven to ten days. Surviving cells were visualized by methylene blue staining, and colonies were scored. In some experiments cell aliquots were removed from the culture and viability was determined using the trypan blue exclusion test. Results were analyzed as percent of surviving cells compared to control cells.
AS-II-336-20 was tested for the ability to inhibit the proliferation of human tumour cells (Hela). Hela S3 cells (American Type Culture Collection, Rockville, Md., ATCC), and a Hela cell line (Hela 1 mM) previously selected for resistance to the antitumour agent, hydroxyurea, were tested (see results in Table 11). Two experiments were undertaken with Hela S3 cells. […] The same experiment was repeated with the Hela 1 mM cell line and with varying concentrations of the antisense construct AS-II-336-20 (see results in Table 11) with similar results, […] was an effective concentration for inhibiting colony formation.
To test the antisense effects of many of these sequences as phosphorthioate deoxyribonucleotides, they were examined in relative colony forming experiments conducted as described in Example 16 with a series of human tumour cell lines. The results (shown as % inhibition of colony forming ability) obtained with cancer cells derived from the bladder, breast, lung, colon, pancreas, prostate, liver and cervix, are shown in Table 13. The specific cell lines employed are as follows:
T24=bladder cell carcinoma HCT116=colon cell carcinoma A549=lung cell carcinoma MDA-MB-231=breast cell adenocarcinoma […]=pancreatic cell carcinoma PC-3=prostrate cell adenocarcinoma HepG2=hepatocellular carcinoma HeLaS3=cells isolated from a carcinoma of the cervix T-47D=breast ductal carcinoma H596=lung adenosquamous carcinoma cells Colo320=colon cell adenocarcinoma

[8] = system: MDA-MB-231 breast cell adenocarcinoma; test: Relative colony forming efficiency (Example 17, Table 13); settings: averages of 2-8 determinations
How it was run: as §1

Substance | Reduced relative colony forming efficiency, PC-3 (% inhibition of colony forming ability) [1] | Reduced relative colony forming efficiency, T24 (% inhibition of colony forming ability) [2] | Reduced relative colony forming efficiency, HepG2 (% inhibition of colony forming ability) [3] | Reduced relative colony forming efficiency, MIA PaCa-2 (% inhibition of colony forming ability) [4] | Reduced relative colony forming efficiency, HCT116 (% inhibition of colony forming ability) [5] | Reduced relative colony forming efficiency, A549 (% inhibition of colony forming ability) [6] | Reduced relative colony forming efficiency, Hela S3 (% inhibition of colony forming ability) [7] | Reduced relative colony forming efficiency, MDA-MB-231 (% inhibition of colony forming ability) [8]
AS-II-114420 (antisense dG*dT*dA*dT*dT*dG*dC*dT*dT*dC*dA*dT*dT*dA*dG*dA*dG*dT*dG*dC) | 30.21% | 62.9% | 92.17% | 46.39% | 54.25% | 61.81% | 50.57% | –
ATAAAGTCAAATGGGTTCTC (antisense dA*dT*dA*dA*dA*dG*dT*dC*dA*dA*dA*dT*dG*dG*dG*dT*dT*dC*dT*dC) [AS-II-1224-20] | 80.66% | 38.31% | 76.05% | 17.22% | 41.78% | 55.06% | 14.8% | –
GAACATCAGGCAAGCAAAAT (antisense dG*dA*dA*dC*dA*dT*dC*dA*dG*dG*dC*dA*dA*dG*dC*dA*dA*dA*dA*dT) [AS-II-1006-20] | 92.58% | 61.49% | 89.31% | 47.93% | 45.56% | 61.62% | 41.79% | –
TCAGGCAAGCAAAATCACAG (antisense dT*dC*dA*dG*dG*dC*dA*dA*dG*dC*dA*dA*dA*dA*dT*dC*dA*dC*dA*dG) [AS-II-1001-20] | 85.94% | 86.11% | 90.36% | 64.21% | 55.58% | 71.36% | – | 82.17%
TTAGAAGTCAGCATCCAAGG (antisense dT*dT*dA*dG*dA*dA*dG*dT*dC*dA*dG*dC*dA*dT*dC*dC*dA*dA*dG*dG) [AS-II-1345-20] | 89.58% | 51.26% | 75.42% | 77.39% | 65.7% | 73.1% | – | 94.11%
